# Data published in US8461183B2, “PPAR agonist compounds, preparation and uses” (Genfit, priority 2008, dated 2013).
# pEC50: −log10 of the molar value.
# How the values were obtained:
# [1] = system: 3 PPAR isoforms; assay: PPAR agonist properties of compound 1, different method and equipment (not described)
# Experimental: The measured activities differ depending on the compound tested and the compounds according to the invention are also observed to have varying selectivity with respect to the various isoforms of hPPAR: • Certain compounds according to the invention are selective for a subtype of PPAR. […] Compound 1 of the invention was also tested for its PPAR agonist properties. […] As the measurements obtained for compound 1 were carried out according to a different method and with different equipment, relative to the other 53 compounds in the examples, the corresponding results are not presented in Table 8-1 above.
# [2] = system: PPARδ target genes (PDK4, CPT1b, UCP2) in murine myocytes; assay: Expression of PPARδ target genes in murine myocytes (differentiated C2C12 cells); type: cell-based; conditions: 24 hours, Cpd 7 at 0.1, 1, 10 μM, Cpd 24 at 0.2, 2, 20 μM, normalized to 36B4
# Experimental: The PPARδ agonist properties previously measured in vitro were evaluated by measuring, in murine myocytes, the expression of genes involved in lipid and carbohydrate metabolism and energy expenditure (PDK4, CPT1b, UCP2). Regulation of expression of these genes, in this cell type, is a direct consequence of the activation of PPARδ by the compounds according to the invention. The greater the increase in expression of the genes, the more the compound according to the invention is a stimulator of metabolism in muscle cells (Dressel U et al., 2003).
# The C2C12 murine cells (from ECACC) are cultivated in DMEM medium (Gibco; 41965-039) supplemented with 1% L-glutamine (Gibco; 25030), 1% penicillin/streptomycin (VWR; BWSTL0022/100) and 10% decomplemented fetal calf serum (FCS. Gibco; 10270-106).
# The cells are seeded in 24-well plates at a density of 50×10^3 cells/well. At confluence, the medium is replaced with a differentiation medium (base culture medium supplemented with 2% of horse serum (Gibco; 26050-088)) then culture is continued at 37° C. and 5% CO2 for 7 days in order to permit differentiation of the myoblasts into myocytes.
# After 6 days of differentiation, the cells are put in a deprivation medium (base culture medium without serum) for 6 hours. The cells are then treated with the compounds according to the invention in the deprivation medium. The compounds according to the invention were tested at doses of 0.1, 1, 10 μM and 0.2, 2 and 20 μM respectively. The compounds according to the invention were dissolved in dimethylsulfoxide (DMSO, Sigma; D5879). The cells are treated for 24 hours at 37° C., 5% CO2. The effects for the compounds tested were compared with the effect of DMSO alone at a concentration of 0.1%.
# These procedures were performed on the cells essentially as described in Example 10 (point c) of the Protocols.
# The following primer pairs specific to the genes investigated were used: […]
# [3] = target: T1, hPPARγ (Homo sapiens, UniProt P37231); assay: Gal4-hPPARγ chimera transactivation (luciferase) in COS-7 cells; type: cell-based; conditions: 24 hours; for pEC50: luciferase, read-out: PPARγ EC50; for Emax: relative to maximum activation obtained with rosiglitazone, read-out: PPARγ TOP % (maximum activation)
# T1 construct: corresponding to the DEF domains (structural elements of the promoter of the PPARs: D=hinge, EF=ligand fixation domain and AF2 fixation site); expressed in transfected cells; host or cells: COS-7 (monkey kidney fibroblasts)
# T1 sequence (P37231 238-503 limits assumed): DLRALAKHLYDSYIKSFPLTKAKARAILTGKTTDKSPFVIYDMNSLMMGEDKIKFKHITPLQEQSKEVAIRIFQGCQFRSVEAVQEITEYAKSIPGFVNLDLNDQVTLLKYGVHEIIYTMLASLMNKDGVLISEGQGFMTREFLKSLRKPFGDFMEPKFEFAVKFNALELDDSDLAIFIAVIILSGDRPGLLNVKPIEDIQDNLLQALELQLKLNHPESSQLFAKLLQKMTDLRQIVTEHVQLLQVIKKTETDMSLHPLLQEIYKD
# Method in brief: (§1)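 COS-7 cells transfected with Gal4-DBD fused to human PPARγ or PPARδ DEF (hinge/ligand-binding) domain plus Gal4(RE)_TkpGL3 luciferase reporter (1:10).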
# [4] = target: T2, hPPARδ (Homo sapiens, UniProt Q03181); assay: Gal4-hPPARδ chimera transactivation (luciferase) in COS-7 cells; type: cell-based; conditions: for pEC50 / Emax: COS-7 cells, Gal4-hPPARδ, 24 hours; for pEC50: luciferase, read-out: PPARδ EC50; for Emax: relative to maximum activation obtained with GW501516, read-out: PPARδ TOP % (maximum activation)
# T2 construct: corresponding to the DEF domains (structural elements of the promoter of the PPARs: D=hinge, EF=ligand fixation domain and AF2 fixation site); expressed in transfected cells; host or cells: COS-7 (monkey kidney fibroblasts)
# T2 sequence (Q03181 211-439 limits assumed): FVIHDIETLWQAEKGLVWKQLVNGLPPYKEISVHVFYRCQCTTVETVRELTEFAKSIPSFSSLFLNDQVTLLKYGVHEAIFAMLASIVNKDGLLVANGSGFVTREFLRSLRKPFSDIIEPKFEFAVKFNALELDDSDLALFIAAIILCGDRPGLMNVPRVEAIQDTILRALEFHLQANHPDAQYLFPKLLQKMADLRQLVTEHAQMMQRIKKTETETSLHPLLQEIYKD
# Method in brief: as §1
# [5] = target: T3, hPPARα (Homo sapiens, UniProt Q07869); assay: Gal4-hPPARα chimera transactivation (luciferase) in COS-7 cells; type: cell-based; conditions: COS-7 cells, Gal4-hPPARα, 24 hours; for pEC50: luciferase, read-out: PPARα EC50; for Emax: relative to maximum activation obtained with fenofibric acid, read-out: PPARα TOP % (maximum activation)
# T3 construct: corresponding to the DEF domains (structural elements of the promoter of the PPARs: D=hinge, EF=ligand fixation domain and AF2 fixation site); expressed in transfected cells; host or cells: COS-7 (monkey kidney fibroblasts)
# T3 sequence (Q07869 239-466 limits assumed): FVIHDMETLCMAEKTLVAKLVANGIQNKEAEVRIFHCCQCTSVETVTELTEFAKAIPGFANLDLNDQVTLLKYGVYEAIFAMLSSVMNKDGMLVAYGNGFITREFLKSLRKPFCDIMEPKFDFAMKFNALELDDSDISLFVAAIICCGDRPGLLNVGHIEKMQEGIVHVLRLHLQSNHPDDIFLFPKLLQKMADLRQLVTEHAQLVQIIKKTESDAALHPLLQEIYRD
# Method in brief: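 COS-7 cells transiently co-transfected with Gal4 DBD–human PPARα, γ or δ DEF-domain chimeras plus Gal4(RE)_TkpGL3 luciferase reporter (1/10), seeded serum-free, then compound-treated 24 h at 37 °C in 1% Ultroser. Luciferase read after lysis; EC50 and TOP % relative to maximal activation by fenofibric acid (α), rosiglitazone (γ) or GW501516 (δ).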
# [6] = system: 3T3-L1 murine pre-adipocytes; assay: PPARγ functional effect: adipogenesis in 3T3-L1 pre-adipocytes (triglycerides, adiponectin); type: cell-based, Mus musculus; conditions: 3T3-L1, 9 days of treatment, 30 nM to 30 μM
# Experimental: The functional effect of activation of PPARγ is evaluated in vitro on a line of pre-adipocyte cells 3T3-L1 (Thompson G M et al., 2004) by measuring the concentration of intracellular triglycerides and the concentration of adiponectin secreted in the culture medium after 9 days of treatment with the compounds according to the invention.
# At confluence, the cells were then rinsed with PBS (Phosphate Buffered Saline solution) and the culture medium was replaced with DMEM 4.5 g/L glucose (10% FCS, 1% L-glutamine, 100 units/mL penicillin and 100 μg/mL streptomycin, 0.25 mM) containing a cocktail for initiation of adipocyte differentiation (IBMX (3-isobutyl-1-methylxanthine Sigma; 17018), 0.1 μM dexamethasone (Sigma; D1756) and 0.4 μM of insulin (Sigma; I2643). The cells were also treated with the compounds according to the invention (1 μL of solubilized compound/mL of medium, 200 μL per well).
# After 2 days of incubation, the cells were washed with PBS and the differentiation medium was replaced with DMEM 4.5 g/L of glucose supplemented with 10% FCS, 1% L-glutamine, 100 units/mL penicillin and 100 μg/mL streptomycin, 0.4 μM insulin, and the compounds according to the invention for the purpose of completing cellular differentiation and obtaining adipocytes. The medium was changed every 2 days until total differentiation. After culture for 9 days, the treatment was stopped by withdrawing the culture medium, which was stored for assaying secreted adiponectin. The cells were then washed twice with PBS and placed in isopropanol for membrane permeabilization. The content of intracellular triglycerides was evaluated immediately.
# Quantification of intracellular triglycerides was performed with the “Triglyceride Enzymatic PAP1000” kit (bioMérieux; 61238) according to the supplier's recommendations. Secreted adiponectin was measured in the culture medium using the “Mouse Adiponectin/Acrp30 Elisa Kit” kit (R&D Systems; DY1119) according to the supplier's recommendations.
SMILES,selectivities for the 3 PPAR isoforms [1],expression of CPT1b [2],expression of PDK4 [2],expression of UCP2 [2],pEC50 [3],Emax [3] [%],pEC50 [4],"selectivity among hPPAR isoforms (hPPARδ) ([4]; Gal4-hPPAR chimeras, COS-7)",Emax [4] [%],pEC50 [5],Emax [5] [%],accumulation of triglycerides in adipocytes [6],secretion of adiponectin [6]
"COc1nc(-c2ccccc2)ccc1COc1ccc(OC(C)(C)C(=O)O)cc1 [Cpd 1, 2-(4-((2-methoxy-6-phenylpyridin-3-yl)methoxy)phenoxy)-2-methyl-propanoic acid]",comparable selectivities for the 3 PPAR isoforms,,,,,,,,,,,,
CC(C)(C)Oc1nc(-c2ccccc2)ccc1COc1ccc(OCC(=O)O)cc1 [Cpd 7],,significant effects of stimulating expression,significant effects of stimulating expression,significant effects of stimulating expression,4.33,20.6,6.26,selective with respect to hPPARδ,96.5,4.40,28.9,,
"COc1nc(-c2ccc(C(F)(F)F)cc2)ccc1CNc1ccc(CCC(=O)O)cc1 [Cpd 36, 3-(4-(((2-methoxy-6-(4-(trifluoromethyl)phenyl)pyridin-3-yl)methyl)amino)-phenyl)propanoic acid]",,,,,5.82,123,6.23,,93.9,6.52,78,dose-dependent stimulation,dose-dependent stimulation
